Results reported in US6211154A, “Ketoheterocyclic inhibitors of factor Xa” (COR Therapeutics, Inc., priority 1995, dated 2001).

Experiment: Coagulation parameters (aPTT, PT) in blood samples of the rabbit venous thrombosis model
Assay type: in vivo
Details: steady state, mean±SD
From the text: All measurements are an average of all samples after steady state administration of vehicle or (D)--Arg--G|y--Arg--thiazole. Values are expressed as mean±SD.

For `NC(N)=NCCCC(N)C(=O)NCC(=O)NC(CCCN=C(N)N)C(=O)c1nccs1` [H-D-Arg-Gly-Arg-thiazole, H--(D)--Arg--Gly--Arg--Thiazole], the “PT fold increase over baseline” value (50 μg/kg + 1.28 μg/kg/min) was 1.00 ± 0.00 fold, the “PT fold increase over baseline” value (75 μg/kg + 1.93 μg/kg/min) was 1.00 ± 0.00 fold and the “PT fold increase over baseline” value (100 μg/kg + 2.57 μg/kg/min) was 0.83 ± 0.00 fold.
